{"source": "patent US9884040B2", "about": "“Desethylamiodarone for use in cancer treatment” (PÉCSI TUDOMÁNYEGYETEM, priority 2015, dated 2018)", "origin": "cited, not measured here", "details": "in vivo; cited from earlier work"}
{"compound": "CCCCc1oc2ccccc2c1C(=O)c1cc(I)c(OCCN(CC)CC)c(I)c1", "note": "[amiodarone]", "values": [{"measurement": "Recommended therapeutic range", "value": "< 5.7", "unit": "µM"}]}
